Test results: US6544727B1, “Methods and devices for the removal of psoralens from blood products” (Cerus Corporation, priority 1995, dated 2003)
“Also recorded” adds a separate entry of the source.

Experiments:
R17 bacteriophage = R17 bacteriophage inactivation assay, varying compound concentration; format: cell-based; settings: for R17 inactivation efficiency compared with AMT or 8-MOP (in words): varying concentration, Tables 6-9, FIGS. 6-10
Summary of the method: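 R17 phage (10^9/mL in DMEM with 15% FBS) mixed with compound at 4–320 μM and irradiated 1–10 min. Surviving phage titred by serial dilution and plaque assay on Hfr 3000 bacteria after overnight incubation at 37 °C; controls were untreated phage, UV without compound, and compound without irradiation.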

[1] = tested on: Salmonella tester strain TA98; test: Ames test, strain TA98
Method: In this example the compounds of the present invention are tested for their dark mutagenicity using an Ames assay. The procedures used for the Salmonella mutagenicity test as described in detail by Maron and Ames were followed exactly. Maron, D. M. and B. N. Ames, Mutation Research 113: 173 ( 1983). A brief description for each procedure is given here. The tester strains TA97a, TA98, TA100, TA102, TA1537 and TA1538 were obtained from Dr. Ames. TA97a, TA98, TA1537 and TA1538 are frameshift tester strains. TA100 and TA102 are base-substitution tester strains. Upon receipt each strain was cultured under a variety of conditions to confirm the genotypes specific to the strains.
The first tests done with the strains were to determine the range of spontaneous reversion for each of the strains. With each mutagenicity experiment the spontaneous reversion of the tester strains to histidine independence was measured and expressed as the number of spontaneous revertants per plate. This served as the background controls.
For all experiments, the pre-incubation procedure was used. In this procedure one vial of each tester strain was thawed and 20 μL of this culture was added to 6 mL of Oxoid Nutrient Broth #2. This solution was allowed to shake for 10 hours at 37° C. In the pre-incubation procedure, 0.1 mL of this overnight culture was added to each of the required number of sterile test tubes. To half of the tubes 0.5 mL of a 10% S-9 solution containing Aroclor 1254 induced rat liver extract (Molecular Toxicology Inc., Annapolis, Md.), and MgCl2, KCl, glucose-6-phosphate, NADP, and sodium phosphate buffer (Sigma, St. Louis, Mo.) were added. To the other half of the tubes 0.5 mL of 0.2M sodium phospate buffer, pH 7.4, was used in place of the S-9 mixture (the—S9samples). […] The 0.7 mL mixture was vortexed and then pre-incubated while shaking for 20 minutes at 37° C. After shaking, 2 mL of molten top agar supplemented with histidine and biotin were added to the 0.7 mL mixture and immediately poured onto a minimal glucose agar plate (volume of base agar was 20 mL). The top agar was allowed 30 minutes to solidify and then the plates were inverted and incubated for 44 hours at 37° C. After incubation the number of revertant colonies on each plate were counted. […] (“n” represents the number of replicates performed for each data point.)

[2] = tested on: Chinese hamster ovary (CHO) cells; test: In vitro genotoxicity screen in CHO cells; settings: approximately 3 hours exposure in the dark
From the text: In such studies, cells are exposed to chemicals with and/or without rat S-9 metabolic activation system (S-9) and are later examined for either cell survival (for a genotoxicity screen) or for changes in chromosome structure (for a chromosome aberration assay).
Chinese hamster ovary (CHO; ATCC CCL 61 CHO-K1, proline-requiring) cells were used for the in vitro genotoxicity and chromosomal aberration tests. CHO cells are used extensively for cytogenic testing because they have a relatively low number of chromosomes (2n=20) and a rapid rate of multiplication (˜12 to 14 hours, depending on culture conditions). The cells were grown in an atmosphere of 5% CO2 at approximately 37° C. in McCoy's 5a medium with 15% fetal bovine serum (FBS), 2 mM L-glutamine, and 1% penicillin-streptomycin solution to maintain exponential growth. This medium was also used during exposure of the cells to the test compound when no S-9 was used. Cell cultures were maintained and cell exposures were performed in T-75 or T-25 flasks.
Each of the sample compounds were tested at seven dilutions, 1, 3, 10, 33, 100, 333, and 1000 μg/ml. […]
After approximately 2.5 hours in colchicine, the cells were harvested. […] The cell density and metaphase quality on the initial slide from each flask was monitored using a phase-contrast microscope; at least two slides of appropriate cell density were prepared from each flask. […]

platelets = test: Platelet count, Sysmex cell counter; format: cell-based, human; settings: 100 μM compound, 5 Joules/cm^2, Day 5; FIGS. 21A-24A
Method: Samples were diluted 1:3 in blood bank saline.

[3] = 8 μM, starting titer approx. 7.2 logs, 1 minute irradiation (Table 7)
[4] = 16 μM, starting titer approx. 7.2 logs, 1 minute irradiation (Table 7)
[5] = 32 μM, starting titer approx. 7.2 logs, 1 minute irradiation (Table 7)
[6] = 16 μM, starting titer approx. 7.1 logs, 1 minute irradiation (Table 9)
[7] = 16 μM, starting titer approx. 7.1 logs, 1 minute irradiation = 1.2 J/cm^2 (Table 8)
[8] = 32 μM, starting titer approx. 7.1 logs, 1 minute irradiation = 1.2 J/cm^2 (Table 8)

SMILES	R17 Log Kill (R17 bacteriophage; [3])	R17 Log Kill (R17 bacteriophage; [4])	R17 Log Kill (R17 bacteriophage; [5])	R17 inactivation efficiency compared with AMT or 8-MOP (in words) (R17 bacteriophage)	revertant colonies per plate ([1]; TA98 + S9, 10 μg/plate)	revertant colonies per plate ([1]; TA98 + S9, 50 μg/plate)	revertant colonies per plate ([1]; TA98 + S9, 100 μg/plate)	revertant colonies per plate ([1]; TA98 + S9, 250 μg/plate)	revertant colonies per plate ([1]; TA98 − S9, 10 μg/plate)	revertant colonies per plate ([1]; TA98 − S9, 50 μg/plate)	revertant colonies per plate ([1]; TA98 − S9, 100 μg/plate)	revertant colonies per plate ([1]; TA98 − S9, 250 μg/plate)	R17 Log Kill (R17 bacteriophage; [6])	R17 Log Kill (R17 bacteriophage; [7])	R17 Log Kill (R17 bacteriophage; [8])	concentration at which the compound was genotoxic (toxic dose) [2]	platelet count, treated against controls (in words) (platelets)	other results
Cc1oc2c(C)c3oc(=O)cc(C)c3cc2c1COCCN [Compound 2, 4′-(4-amino-2-oxa)butyl-4,5′,8-trimethylpsoralen]	3.8 log	>6.2 log	>6.2 log	significantly higher inactivation efficiency than does AMT	24	35	53	69	28	52	39	29						revertant colonies per plate ([1]; TA98 + S9, 500 μg/plate): 63; revertant colonies per plate ([1]; TA98 − S9, 500 μg/plate): 6
Cc1oc2c(C)c3oc(=O)cc(C)c3cc2c1CN [AMT, 4′-Aminomethyl-4,5′,8-trimethylpsoralen, reference compound]	2.7 log	4.6 log	>6.2 log		403	620	745	933	20	69	114	112	>6 log	4.5 log	4.8 log	30 µg/mL		R17 Log Kill (R17 bacteriophage; 32 μM, starting titer approx. 7.1 logs, 1 minute irradiation (Table 9)): >6 log; R17 log kill (32 μM) (R17 bacteriophage; 32 μM, starting titer approx. 7.5 logs, 1 minute irradiation): >6.7 log; revertant colonies per plate ([1]; TA98 + S9, 0.1 μg/plate): 1; revertant colonies per plate ([1]; TA98 + S9, 0.5 μg/plate): 3; revertant colonies per plate ([1]; TA98 + S9, 1 μg/plate): 21; revertant colonies per plate ([1]; TA98 + S9, 5 μg/plate): 232; revertant colonies per plate ([1]; TA98 − S9, 0.1 μg/plate): 3; revertant colonies per plate ([1]; TA98 − S9, 0.5 μg/plate): 5; revertant colonies per plate ([1]; TA98 − S9, 1 μg/plate): 5; revertant colonies per plate ([1]; TA98 − S9, 5 μg/plate): 16
Cc1oc2c(C)c3oc(=O)cc(C)c3cc2c1CNCCCCN [Compound 6, 4′-(6-amino-2-aza)hexyl-4,5′,8-trimethylpsoralen]				significantly higher inactivation efficiency than does AMT									>6 log	>6.1 log	>6.1 log	100 µg/mL	higher platelet count than samples treated with light alone; also recorded: counts equivalent to the 5 day control	R17 Log Kill (R17 bacteriophage; 8 μM, starting titer approx. 7.1 logs, 1 minute irradiation (Table 9)): >6 log; R17 Log Kill (R17 bacteriophage; 64 μM, starting titer approx. 7.1 logs, 1 minute irradiation = 1.2 J/cm^2 (Table 8)): >6.1 log
Cc1cc(=O)oc2c(C)c3oc(COCCN)c(C)c3cc12 [Compound 18, 5′-(4-amino-2-oxa)butyl-4,4′,8-trimethylpsoralen]					8	6	26		21	303	390						higher platelet count than samples treated with light alone	revertant colonies per plate ([1]; TA98 + S9, 200 μg/plate): 42; revertant colonies per plate ([1]; TA98 − S9, 200 μg/plate): 225
